Experimental findings from patent publication US10807985B2 (Blueprint Medicines Corporation, priority 2013, dated 2020) are described below.

For one test, the target named is D816V KIT (Homo sapiens (Human), UniProt P10721, D816V). Kind of test: KIT D816V assay at Km (Caliper electrophoretic mobility shift). The conditions noted are these: biochemical, 15 uM ATP (Km), 90 minutes at 25 C; read-out: INH KIT D816V.
Test [1] deals with KIT D816V kinase activity (KIT autophosphorylation at tyrosine 719) in HMC1.2 cells (Homo sapiens (Human), UniProt P10721, D816V/V560G). The experiment in a line: HMC1.2 autophosphorylation assay (phospho-Y719 c-KIT AlphaLISA). It is filed as cell-based. The conditions noted are these: HMC1.2 mast cell leukemia cell line (KIT V560G, D816V), 90 minutes compound; read-out: INH-KIT-PHOS-HMC1.2. In general terms: Bead proximity is the source of the signal in Alpha formats.

pIC50: −log10 of the molar value.

Sequence of D816V KIT (P10721 26-976 D816V): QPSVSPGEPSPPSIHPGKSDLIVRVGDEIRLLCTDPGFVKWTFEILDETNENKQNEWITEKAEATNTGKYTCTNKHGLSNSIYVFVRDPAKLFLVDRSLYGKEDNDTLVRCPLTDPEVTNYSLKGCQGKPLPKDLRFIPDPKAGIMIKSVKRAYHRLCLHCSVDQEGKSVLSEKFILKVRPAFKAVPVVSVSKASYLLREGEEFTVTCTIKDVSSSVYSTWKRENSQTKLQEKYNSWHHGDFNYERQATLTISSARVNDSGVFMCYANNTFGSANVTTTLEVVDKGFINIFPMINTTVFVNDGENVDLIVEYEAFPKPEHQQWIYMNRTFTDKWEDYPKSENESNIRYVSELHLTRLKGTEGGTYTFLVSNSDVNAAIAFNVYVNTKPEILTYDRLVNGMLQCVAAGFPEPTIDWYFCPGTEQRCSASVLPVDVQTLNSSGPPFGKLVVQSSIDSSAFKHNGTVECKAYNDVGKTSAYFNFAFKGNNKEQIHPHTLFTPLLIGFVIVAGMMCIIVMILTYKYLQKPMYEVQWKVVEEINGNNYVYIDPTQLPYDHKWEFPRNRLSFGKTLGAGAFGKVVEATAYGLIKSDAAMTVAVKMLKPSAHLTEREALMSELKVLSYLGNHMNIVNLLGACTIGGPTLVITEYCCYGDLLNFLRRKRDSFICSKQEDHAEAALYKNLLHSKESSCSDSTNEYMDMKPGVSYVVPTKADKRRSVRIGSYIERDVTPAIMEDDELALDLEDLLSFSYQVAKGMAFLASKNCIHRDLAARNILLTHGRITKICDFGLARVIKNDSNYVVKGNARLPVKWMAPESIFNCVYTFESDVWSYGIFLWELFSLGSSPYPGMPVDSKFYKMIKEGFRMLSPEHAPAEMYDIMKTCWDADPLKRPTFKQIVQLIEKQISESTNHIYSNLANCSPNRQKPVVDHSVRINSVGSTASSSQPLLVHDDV
Sequence of KIT D816V kinase activity (KIT autophosphorylation at tyrosine 719) in HMC1.2 cells (P10721 26-976 V560G/D816V): as the sequence (P10721 26-976 D816V) above, with V535G counted along it

In the case of `Cn1cc(-c2cc3c(N4CCN(c5ncc([C@@](C)(O)c6ccc(F)cn6)cn5)CC4)ncnn3c2)cn1` [Compound 54], the pIC50 is 8.00 to 9.00 on D816V KIT and 6.00 to 7.00 in test [1].
For `C[C@@H]1CN(c2ncnn3cc(-c4cnn(C)c4)cc23)CCN1c1ncc(Sc2ccccc2F)cn1` [Compound 55] the same measures were 7.00 to 8.00 and 6.00 to 7.00.
Take `Cn1cc(-c2cc3c(N4CCN(c5ncc(Sc6ccccc6F)c(N)n5)CC4)ncnn3c2)cn1` [Compound 56]: the pIC50 at D816V KIT is more than 9.00; in test [1], more than 7.30.
Take `Cc1ccc(-c2cc3c(N4CCN(c5ncc([C@@](C)(O)c6ccc(F)cc6)cn5)CC4)ncnn3c2)cc1` [Compound 59]: the results for the pIC50 (on D816V KIT; in test [1]) were 7.00 to 8.00 and 6.00 to 7.00, respectively.
Taken in the same sequence, the figures for `Cc1ccc(-c2cc3c(N4CCN(c5ncc([C@@](C)(O)c6ccc(F)cc6)cn5)CC4)ncnn3c2)cn1` [Compound 60] were 8.00 to 9.00 and more than 7.30.
For `Cn1cc(-c2cc3c(N4CCN(c5ncc(C6(c7ccc(F)cc7)COC6)cn5)CC4)ncnn3c2)cn1` [Compound 61] the same measures were 8.00 to 9.00 and 6.00 to 7.00.
For `CCn1cc(-c2cc3c(N4CCN(c5ncc([C@@](C)(N)c6ccc(F)cc6)cn5)CC4)ncnn3c2)cn1` [Compound 63] the same measures were more than 9.00 and more than 7.30.
Consider `C[C@@](O)(c1ccc(F)cc1)c1cnc(N2CCN(c3ncnn4cc(-c5ccc(F)cc5)cc34)CC2)nc1` [Compound 64], for which the pIC50 at D816V KIT was 7.00 to 8.00; in test [1], 6.00 to 7.00.
For `C[C@](O)(c1ccc(F)cc1)c1cnc(N2CCN(c3ncnn4cc(-c5cccc(F)c5)cc34)CC2)nc1` [Compound 66], the results for the pIC50 (at D816V KIT; in test [1]) were 8.00 to 9.00 and 6.00 to 7.00, respectively.
Turning to `CO[C@@](C)(c1ccc(F)cc1)c1cnc(N2CCN(c3ncnn4cc(-c5cnn(C)c5)cc34)CC2)nc1` [Compound 67], the values for the pIC50 (on D816V KIT; in test [1]) were 7.00 to 8.00 and 6.00 to 7.00, respectively.
Turning to `CC[C@](O)(c1ccc(F)cc1)c1cnc(N2CCN(c3ncnn4cc(-c5cnn(C)c5)cc34)CC2)nc1` [Compound 69], the pIC50 at D816V KIT was 8.00 to 9.00; in test [1], 6.00 to 7.00.
Taken in the same sequence, the figures for `CC[C@@](O)(c1ccc(F)cc1)c1cnc(N2CCN(c3ncnn4cc(-c5cnn(C)c5)cc34)CC2)nc1` [Compound 70] were 8.00 to 9.00 and more than 7.30.
Taken in the same sequence, the figures for `C[C@@H](c1ccc(F)cc1)c1cnc(N2CCN(c3ncnn4cc(-c5cnn(C)c5)cc34)C[C@H]2CO)nc1` [Compound 73] were 8.00 to 9.00 and more than 7.30.
Taken in the same sequence, the figures for `C[C@H](c1ccc(F)cc1)c1cnc(N2CCN(c3ncnn4cc(-c5cnn(C)c5)cc34)C[C@H]2CO)nc1` [Compound 74] were 8.00 to 9.00 and 7.00 to 7.30.
For `CCn1cc(-c2cc3c(N4CCN(c5ncc([C@@](C)(O)c6ccc(F)cc6)cn5)CC4)ncnn3c2)cn1` [Compound 75], the pIC50 on D816V KIT is more than 9.00; in test [1], more than 7.30.
Taken in the same sequence, the figures for `Cc1ccc(-c2cc3c(N4CCN(c5ncc([C@](C)(O)c6ccc(F)cc6)cn5)CC4)ncnn3c2)s1` [Compound 81] were 7.00 to 8.00 and 5.00 to 6.00.
Regarding `Cc1ccc(-c2cc3c(N4CCN(c5ncc([C@@](C)(O)c6ccc(F)cc6)cn5)CC4)ncnn3c2)s1` [Compound 82], the pIC50 at D816V KIT is 7.00 to 8.00; in test [1], 6.00 to 7.00.
In the case of `Cn1cc(-c2cc3c(N4CCN(c5ncc([C@@](C)(O)c6ccc(Cl)cc6)cn5)CC4)ncnn3c2)cn1` [Compound 83], the pIC50 on D816V KIT is more than 9.00; in test [1] it was more than 7.30.
Regarding `Cn1cc(-c2cc3c(N4CCN(c5ncc([C@@](C)(N)c6ccc(F)cc6F)cn5)CC4)ncnn3c2)cn1` [Compound 85], the results for the pIC50 (at D816V KIT; in test [1]) were more than 9.00 and more than 7.30, respectively.
For `Cc1ncc(-c2cc3c(N4CCN(c5ncc([C@@](C)(O)c6ccc(F)cc6)cn5)CC4)ncnn3c2)s1` [Compound 88] the same measures were more than 9.00 and more than 7.30.
With `Cn1cc(-c2cn3ncnc(N4CCN(c5ncc([C@](C)(O)c6ccc(F)cc6)cn5)CC4)c3c2F)cn1` [Compound 89], the pIC50 was less than 7.00 on D816V KIT and 5.00 to 6.00 in test [1].
Taken in the same sequence, the figures for `Cn1cc(-c2cn3ncnc(N4CCN(c5ncc([C@@](C)(O)c6ccc(F)cc6)cn5)CC4)c3c2F)cn1` [Compound 90] were less than 7.00 and 5.00 to 6.00.
As for `Cn1cc(-c2cc3c(N4CCN(c5ncc([C@](C)(O)c6c(F)cccc6F)cn5)CC4)ncnn3c2)cn1` [Compound 91], the values for the pIC50 (on D816V KIT; in test [1]) were more than 9.00 and 7.00 to 7.30, respectively.
For `Cn1cc(-c2cc3c(N4CCN(c5ncc([C@@](C)(O)c6c(F)cccc6F)cn5)CC4)ncnn3c2)cn1` [Compound 92] the same measures were 8.00 to 9.00 and more than 7.30.
`Cn1cc(-c2cc3c(N4CCN(c5ncc([C@@](O)(CF)c6ccc(F)cc6)cn5)CC4)ncnn3c2)cn1` [Compound 95]: the pIC50 on D816V KIT was more than 9.00; in test [1], 7.00 to 7.30.
For `Cn1cc(-c2cc3c(N4CCN(c5ncc(S(=O)(=O)c6ccc(F)cc6)cn5)CC4)ncnn3c2)cn1` [Compound 99] the same measures were 7.00 to 8.00 and 5.00 to 6.00.
Taken in the same sequence, the figures for `COc1cccc(-c2cc3c(N4CCN(c5ncc([C@@](C)(O)c6ccc(F)cc6)cn5)CC4)ncnn3c2)c1` [Compound 101] were 7.00 to 8.00 and 7.00 to 7.30.
With `Cn1cc(-c2cc3c(N4CCN(c5ncc([C@](O)(c6ccc(F)cc6)C6CC6)cn5)CC4)ncnn3c2)cn1` [Compound 103], the values for the pIC50 (at D816V KIT; in test [1]) were 8.00 to 9.00 and 6.00 to 7.00, respectively.
Taken in the same sequence, the figures for `Cn1cc(-c2cc3c(N4CCN(c5ncc([C@@](O)(c6ccc(F)cc6)C6CC6)cn5)CC4)ncnn3c2)cn1` [Compound 104] were 8.00 to 9.00 and 6.00 to 7.00.
Taken in the same sequence, the figures for `C[C@H](O)Cn1cc(-c2cc3c(N4CCN(c5ncc(Sc6ccccc6F)cn5)CC4)ncnn3c2)cn1` [Compound 105] were 8.00 to 9.00 and more than 7.30.
As for `Cn1cc(-c2cc3c(N4CCN(c5ncc(C(C)(C)c6c(F)cc(F)cc6F)cn5)CC4)ncnn3c2)cn1` [Compound 106], the pIC50 was 8.00 to 9.00 on D816V KIT and more than 7.30 in test [1].
In the case of `Cn1cc(-c2cn3ncnc(N4CCN(c5ncc([C@@](C)(O)c6ccc(F)cc6)cn5)CC4)c3c2Cl)cn1` [Compound 108], the pIC50 at D816V KIT is less than 7.00; in test [1], 5.00 to 6.00.
In the case of `Cn1cc(-c2cc3c(N4CCN(c5ncc([C@](C)(O)c6ccc(F)cc6Cl)cn5)CC4)ncnn3c2)cn1` [Compound 109], the pIC50 was 7.00 to 8.00 on D816V KIT and 6.00 to 7.00 in test [1].
Regarding `Cn1cc(-c2cc3c(N4CCN(c5ncc([C@@](C)(O)c6ccc(F)cc6Cl)cn5)CC4)ncnn3c2)cn1` [Compound 110], the pIC50 on D816V KIT is 8.00 to 9.00; in test [1], more than 7.30.
Taken in the same sequence, the figures for `Cn1cc(-c2cc3c(N4CCN(c5ncc([C@](N)(c6ccc(F)cc6)C(F)F)cn5)CC4)ncnn3c2)cn1` [Compound 112] were 8.00 to 9.00 and 6.00 to 7.00.
For `Cn1cc(-c2cc3c(N4CCN(c5ncc([C@](C)(N)c6c(F)cc(F)cc6F)cn5)CC4)ncnn3c2)cn1` [Compound 113] the same measures were more than 9.00 and more than 7.30.
For `Cn1cc(-c2cc3c(N4CCN(c5ncc([C@@](C)(N)c6c(F)cc(F)cc6F)cn5)CC4)ncnn3c2)cn1` [Compound 114] the same measures were more than 9.00 and more than 7.30.
